From patent US11040085B2, “Pharmaceutical composition containing F1 polypeptide and/or F3 polypeptide and use thereof” (priority 2016, dated 2021)

Legend:
condyloma acuminate = settings: topical application of 5% emulsion; cited from earlier work
Hela cells = assay: MTT assay, growth of human cervical carcinoma cells (HELA) in vitro; assay type: cell-based; settings: different dosages, overnight, MTT assay (FIG. 7)
NP69 cells = assay: MTT assay, immortalized normal cells NP69; assay type: cell-based; settings: different concentrations, incubated overnight, MTT assay (FIG. 1D)
Description: Immortalized normal cells NP69 were used in another experiment. More specifically, 100 μL of 5×10^3 NP69 cells cultured in a RPMI medium containing 10% of calf serum were added into a 96-well cell culture plate, the F1 polypeptide, the F3 polypeptide, and control polypeptide P3 (FIG. 1D) with different concentrations were added respectively and incubated overnight in an incubator with 5% of CO2 at 37° C., and the cell proliferation was determined by a MTT assay.

tumor = settings: M. A. Apponyi, et al., Peptides, 2004, 25, 1035; cited from earlier work
TC-1 cells [1] = assay type: cell-based; settings: different concentrations, incubated overnight, MTT assay (FIG. 1A-1C)
Description: More specifically, in the method, 100 μL of 5×10^3 TC-1 cells cultured in a RPMI medium containing 10% of calf serum were added into a 96-well cell culture plate, the F1 polypeptide (FIG. 1A), the F3 polypeptide (FIG. 1B), and control polypeptide P3 (FIG. 1C) with different concentrations were added respectively and incubated overnight in an incubator with 5% of CO2 at 37° C., and the cell proliferation was determined by a MTT assay.
(§1) 100 μL of 5×10^3 TC-1 cells cultured in a RPMI medium containing 10% of calf serum were added into a 96-well cell culture plate, 5 μg/mL of F1 and/or F3 and control polypeptides P3 and F4 were added respectively and incubated overnight in an incubator with 5% of CO2 at 37° C., and the cell proliferation was determined by a MTT assay.
as §1, with “and/or Imiquimod” for “and control polypeptides P3 and F4”

TC-1 cells [2] = assay: Stability in vitro (Tests 1-3), MTT assay on TC-1 cells; assay type: cell-based, mouse; settings: for inhibiting effect on growth of TC-1 cells at 72th hour: Test 1, 10 μg/ml, incubated 72 hours (FIG. 10A); for activity after being prepared and stored for 7 days: Test 2, stored at minus 20° C. before using, 10 μg/ml, 24 hours incubation (FIG. 10B); for activity in PBS with a pH value of 5.5: Test 3, 10 μg/ml; for activity in PBS with a pH value of 5.5 / activity in PBS heated at 100° C.: 24 hours incubation (FIG. 10C); for activity in PBS heated at 100° C.: Test 3, PBS heated 10 minutes at 100° C. before using
Description: RPMI medium containing 10% of calf serum and 5×10^3 TC-1 cells were added into a 96-well cell culture plate; 10 μg/ml of the F1 polypeptide, the F3 polypeptide, and a mixture of F1 and F3 in a ratio of 1:1 were added respectively into the medium and incubated for 72 hours in an incubator with 5% of CO2 at 37° C., and the cell proliferations at 24th hour, 48th hour, and 72th hour were determined respectively by the MTT assay.
The steps in the Test 2 were substantially the same as those in the Test 1, except that the F1 polypeptide and the F3 polypeptide which had been prepared and stored for 0, 1, 3, 5, and 7 days at minus 20° C. respectively before using were added into the medium, and the incubation was performed for 24 hours.
The steps in the Test 3 were substantially the same as those in the Test 1, except that the pH value of the phosphate buffer saline (PBS) in the medium was changed or the PBS is heated for 10 minutes at 100° C. before using, and the incubation was performed for 24 hours. Referring to FIG. 10C, it can be seen that the F1 polypeptide and the F3 polypeptide were still active even in the PBS with a pH value of 5.5 or heated at 100° C.

IL-6 = IL-6 level in TC-1 culture solution by ELISA; assay type: cell-based, mouse; settings: for change of IL-6 levels with increase of concentration: 5 μg/mL to 10 μg/mL, overnight (FIG. 12A, 12B); for IL-6 level in TC-1 culture solution: 5 μg/mL, overnight, vs untreated solution or P3 polypeptide (FIG. 12A)
Description: FIGS. 12A and 12B are graphs illustrating IL-6 levels (detected by ELISA) in TC-1 culture solutions treated by 5 μg/mL and 10 μg/mL of the P3 polypeptide, the F1 polypeptide, the F3 polypeptide, and a mixture of F1 and F3 overnight, respectively. […] IL-6 levels were decreased with increase of concentration of the F1 polypeptide, the F3 polypeptide, or the mixture of F1 and F3, which may be resulted from apoptosis of TC-1 cells induced by high concentration of the F1 polypeptide, the F3 polypeptide, or the mixture of F1 and F3.

TC-1 cells [3] = assay: Interaction of FITC-labeled polypeptide with TC-1 cell (flow cytometry, confocal microscopy); assay type: cell-based, mouse; settings: 2 μg/mL FITC-labeled polypeptide, flow cytometry (FIG. 5A)
Description: The separated protein was digested by trypsin, polypeptides produced from the digestion was labeled by iTRAQ 4-plex reagents, and the labeled polypeptides were quantitatively analyzed by using a system combining a nano high performance liquid chromatography and a triple time of flight mass spectrometer. […] Besides, the F3 polypeptide and a control polypeptide P3 were labeled by fluorescent dye fluorescein isothiocyanate (FITC), incubated together with TC-1 cells for different periods, and repeatedly washed, thereafter a fluorescence intensity of FITC in the TC-1 cell was detected by a flow cytometry (FIG. 5A).
1000 μL of 5×10^5 TC-1 cells cultured in a RPMI medium containing 10% of calf serum were added into a 24-well cell culture plate, 2 μg/mL of the F3 polypeptide labeled by FITC was added into the cells being incubated, cells at different time points of the incubation were collected and washed with PBS buffer solution, and then the relationship between the F3 polypeptide and TC-1 cell was observed by a flow cytometer (FIG. 5A) or a confocal microscopy (FIG. 5B).

Compound	recurrence rate (condyloma acuminate)	inhibiting effect on growth of Hela cells in vitro (Hela cells)	inhibiting effect on NP69 cells (NP69 cells)	effect on tumor (tumor)	inhibiting effect on growth of TC-1 cells (TC-1 cells [1])	inhibiting effect on growth of TC-1 cells at 72th hour (TC-1 cells [2])	activity after being prepared and stored for 7 days (TC-1 cells [2])	activity in PBS with a pH value of 5.5 (TC-1 cells [2])	activity in PBS heated at 100° C. (TC-1 cells [2])	change of IL-6 levels with increase of concentration (IL-6)	IL-6 level in TC-1 culture solution (IL-6)	time at which FITC was found in TC-1 cell (TC-1 cells [3])	time of peak fluorescence intensity of FITC in TC-1 cell (TC-1 cells [3])
CC(C)Cn1cnc2c(N)nc3ccccc3c21 [Imiquimod]	about 10%	inhibiting effect											
F1 polypeptide: polypeptide of SEQ ID NO: 1, sequence found in tree frog secretion, made by solid phase peptide synthesis; Caerin polypeptide (GLLSVLGSVAKHVLPHVVPVIAEHL; the sequence is synthesized)			no inhibiting effect	inhibiting effect on tumor	obvious inhibiting effects	significant inhibiting effects	not reduced	still active	still active	decreased	significantly higher		
F3 polypeptide: polypeptide of SEQ ID NO: 2, sequence found in tree frog secretion, made by solid phase peptide synthesis; Caerin polypeptide (GLFGVLGSIAKHLLPHVVPVIAEKL; the sequence is synthesized)			no inhibiting effect		obvious inhibiting effects	significant inhibiting effects	not reduced	still active	still active	decreased	significantly higher	15 min	2 h
